Measured values from patent US20240050385A1, “METHODS OF TREATING LEPTOMENINGEAL METASTASIS” (MEMORIAL SLOAN-KETTERING CANCER CENTER, priority 2020, published 2024).
Entries after “also recorded” stand apart in the source; their conditions may differ. Structures can show the parent of a compound that is named as a salt.

Legend:
PC9-LeptoM cells = experiment: In vivo leptomeningeal metastasis assay, PC9-LeptoM model, intracisternal chelator treatment; set-up: species or system mouse; conditions: for Median Survival: every 3 days; for [Fe]: total iron in CSF
Description: (§1) FIG. 16A-16L. Iron chelator treatment reduces CSF iron. (A) Experimental scheme. Mice were inoculated with 2×10^3 cells intrathecally on day 0. Treatment with either vehicle, DFO, or D-pen was commenced on either day 1 or day 7 and continued every third day for a total of 7 doses. (B) Chelators delivered intrathecally. DFO, Deferoxamine. D-Pen, D-Penicillamine. (C-F) Intracellular iron (C and E) and viability (D and F) of PC9-LeptoM cells and MDA231-LeptoM cells after treatment with chelators in different concentrations (0 μM, 1 μM, 10 μM and 100 μM). n=3-4 per group in each of two independent experiments. * indicates p<0.05, ** indicates p<0.01, ***indicates p<0.001, **** indicates p<0.0001 (unpaired t test). Data represent mean±SEM. (G) Growth of PC9-LeptoM tumor after treatment indicated in (A). Left: in vivo BLI imaging in day 28 post-inoculation. n=8-10 per group in each of two independent experiments. Right: Representative BLI images. **** indicates p<0.0001. Data represent mean±SEM. (H) Kaplan-Meier survival curve from (C) and (E). p<0.0001. (I and J) Total iron concentration measured in CSF samples of mice with treatment of chelators in PC9-LeptoM Model (I) in MDA231-LeptoM model (J). NS=not significant, * indicates p<0.05, ** indicates p<0.01 (unpaired t test). Data represent mean±SEM. (K and L) Immune cell composition in CSF of LLC-LeptoM model with the treatment of vehicle, DFO, or D-pen at day 10. n=6 per group. NS=not significant, * indicates p<0.05, ** indicates p<0.01 (unpaired t test). Data represent mean±SEM.
In vivo leptomeningeal metastasis assays. To model leptomeningeal metastasis with a known consistent disease burden, 2×10^3 PC9, 2×10^3 MDA231, or 1×10^3 LLC Parental or LeptoM cells suspended in 10 μl PBS were injected into the cisterna magna of anesthetized mice. This procedure was tolerated well by the mice. Tumor progression was monitored by bioluminescence imaging (BLI) every 7 days after tumor cell inoculation, and mouse condition was monitored daily. When the tumor cells encompassed the entire CNS, or when neurological impairment became apparent, CSF was collected as described above, and mice were euthanized. Brains and spinal cord were collected in tissue fixative and embedded for preservation or histological and morphometric analysis. The role of LCN2 in cancer progression at multiple metastatic sites was also assessed. Tumor burden was monitored and quantified non-invasively after tumor cell inoculation either by BLI signal using the IVIS Spectrum Xenogen (Caliper Life Sciences) machine or with calibrated digital caliper. To track cancer cell growth after hematogenous dissemination, 5×10^4 PC9-LeptoM cells (shCtl, shLCN2-1 and shLCN2-2) suspended in 50 μL PBS were injected into the left heart ventricle. Tumor burden was monitored every 3 days with BLI. To measure cancer cell growth in the lungs, 2.5×10^4 PC9-LeptoM cells (diluted 1:1 in Growth factor-reduced Matrigel, #354230) were injected into the left lung through the rib cage. Tumor burden was monitored every 3 days with BLI. To assess cancer cell growth after subcutaneous inoculation, 1×10^6 PC9-LeptoM cells (diluted 1:1 in growth factor-reduced Matrigel) were injected under the flank skin of the mouse, and tumor burden was monitored every 3 days with calibrated digital caliper. To introduce cells into the mammary fat pad, 5×10^4 MDA-231-LeptoM cells (diluted 1:1 in growth factor-reduced Matrigel) were injected into the fourth inguinal mammary fat pad; tumor burden was measured every 3 days with calibrated digital caliper. To test a hypoxic environment other than the leptomeninges, 5×10^6 cells, diluted in 200 uL PBS, were injected intraperitoneally. Tumor burden was monitored 7 days after inoculation by BLI. Exact numbers for each experimental series are included in the relevant Figure legends.
Mouse CSF collection and Intrathecal drug administration. […]

LLC-LeptoM model = experiment: Immune cell composition in CSF of LLC-LeptoM model (flow cytometry); format: in vivo, mouse; conditions: day 10, in words
Description: as §1
Flow cytometry analysis and sorting. For cytometric bead assay, CSF from control mice or mice bearing LLC LeptoM cells was collected on day 14 as described above. Levels of cytokines were measured using LEGENDplex Mouse Inflammation Panel (13-plex; 740446, Biolegend) as recommended by manufacturer in technical duplicates. Data was processed using LEGENDPlex Software (Biolegend). For flow cytometric analysis of CSF and meningeal cells, mice were transcardially perfused though left ventricle with saline using standard procedures (16). Then, CSF was collected by cisternal tap as described above. Next, cranial vault was removed, brain was collected and basilar meninges were washed with PBS. Surface of the brain and ventricular spaces were washed with PBS. CSF, cavity and brain washouts were pooled and processed for staining. For analysis of peripheral leukocytes, blood was collected from deeply anesthesized mice using cardiac puncture. Spleen was collected from perfused animals, minced, and mechanically dissociated using GentleMACS (Miltenyi Biotec). […] Phagocytic activity and respiratory burst were analyzed using E. coli Phagocytosis Assay Kit (FITC conjugate, Cayman Chemicals, 601370) and CellRox Green Flow Cytometry (Thermo Fisher, C10492), as recommended. […]

Structure (SMILES) | Median Survival (PC9-LeptoM cells; PC9-LeptoM model, intracisternal, start day not given) [days] | [Fe] (PC9-LeptoM cells; PC9-LeptoM model, start day not given) [µM] | number (percentage) of CSF macrophages (LLC-LeptoM model) | numbers of neutrophils, T cells and monocytes in CSF (LLC-LeptoM model) | iron concentration in the CSF compared to control mice (PC9-LeptoM cells; PC9-LeptoM model, day 28, in words) | [Fe] (PC9-LeptoM cells; PC9-LeptoM model, late (day 7)) [µM] | Median Survival (PC9-LeptoM cells; PC9-LeptoM model, treatment begun late (day 7)) [days] | dissemination of cancer cells over the spinal cord (PC9-LeptoM cells; PC9 mouse model, both early and late treatment groups, in words) | survival compared with vehicle control (PC9-LeptoM cells; PC9 mouse model, in words)
CC(C)(S)[C@@H](N)C(=O)O [D-Pen, D-penicillamine] | 31.5 ± 3.5 | 15.13 ± 4.21 | slightly reduced | not affected | – | – | – | – | –
CC(=O)N(O)CCCCCNC(=O)CCC(=O)N(O)CCCCCNC(=O)CCC(=O)N(O)CCCCCN [DFO, Deferoxamine mesylate] | – | – | slightly reduced; also recorded: only mildly reduced | not affected | profoundly decreased; also recorded: reduced CSF iron concentration to that of non-LeptoM control mice | 4.74 ± 0.38 | 40 ± 5 | impaired dissemination | conferred a survival benefit; also recorded: significant survival benefit
